The values below come from a melting point compilation (Tetko et al.; mined from patent text by program, amines drawn as free bases though some values may be those of a salt).

As a reminder, the melting point is the temperature, or range, at which the solid turns liquid.

In turn, `O=C(NCCCCCCCCn1ccnc1)c1ccc(Cl)s1` returned a melting point of 95 to 97 °C. `Cc1cc(-n2cccn2)c2cccc(OCc3c(Cl)ccc(S(=O)(=O)N4CCOCC4)c3Cl)c2n1` displayed a melting point of 178 °C. Consider `CNC1Oc2cc(Cl)cc(-c3ccccc3F)c2O1` (stereo not given), for which the melting point is greater than 250 °C.

Consider `CC1CC(=O)NN=C1c1ccc2c(c1)SCC(=O)N2C` (stereo not given), for which the melting point lay within 193 to 194 °C. The value for `CCN(CC)c1ccc(C2(c3ccc(N(CC)CC)cc3N(CC)CC)OC(=O)c3c(Cl)c(Cl)c(Cl)c(Cl)c32)cc1` (stereo not given) was 196 to 197 °C; that for `Cc1cc(C(C)(C)C)c(OC(=O)c2ccccc2C(=O)Oc2c(C(C)(C)C)cc(C)cc2C(C)(C)C)c(C(C)(C)C)c1` was 262 to 265 °C; that for `COc1cccc2c1[nH]c1c(C(=O)O)cccc12` was 252 °C.

For `COc1cccc2c(CCCNC3COc4c(F)ccc(C(N)=O)c4C3)coc12` (stereo not given), the melting point was 163 to 166 °C.

Consider `CC(=O)C1CCC2C3CCC4=CC(=O)C=CC4(C)C3=CCC12C` (stereo not given), for which the melting point was 161 to 163 °C. Take `CCCN1C(=O)N2C[C@@H](Cc3ccccc3)N=C2c2c1nc(N1CCCC1)n2Cc1ccccc1`: the melting point lay within 124 to 125 °C. In the case of `CCCC(O)C(C)C(=O)NCc1ccccc1` (stereo not given), the melting point was in the range of 114 to 115 °C. The compound `CC(C)(C)c1cc(C(c2ccccc2)N(O)C(N)=O)cc(C(C)(C)C)c1O` (stereo not given) yielded a melting point of 188 to 189 °C. Compound `O=C(CCl)COc1c(Cl)cc(Cl)cc1Cl` had a melting point of 55 °C. For `Cc1nc(-n2cnn(Cc3ccc(F)cc3)c2=O)sc1-c1nn[nH]n1`, the melting point was in the range of 136 to 139 °C.

For `Cc1c(Cc2cccc(C(F)(F)F)c2)oc2c(-c3cc(C(=O)NCCO)ccn3)cccc12`, the melting point was 205 to 206 °C. `CN1CCN(c2ncc3c(=O)c(C(=O)O)cn(C)c3n2)CC1` gave a melting point of 280 °C. Consider `CN(c1ccncc1)n1cccc1CO`, for which the melting point was in the range of 145 to 148 °C. The compound `CCN(CC)S(=O)(=O)c1cc(-c2csc(=Nc3ccc(Cl)cc3)n2C)ccc1Cl` returned a melting point of 198 °C.

`CCc1[nH]c(=S)[nH]c1C(=O)c1ccncc1` gave a melting point of 275 °C. `CC1(C)OC(=O)Nc2ccc(-c3cncc(C#N)c3)cc21` registered a melting point of 290 to 291 °C. `CN(C)S(=O)(=O)c1ccc(C(F)(F)F)cc1[N+](=O)[O-]` gave a melting point of 102 to 104 °C.

On to `CCOC(=O)c1[nH]c2ccc(F)cc2c1N`, for which the melting point lay within 77 to 78 °C. Take `COc1ccc(/C=C/c2ccccc2[N+](=O)[O-])c([N+](=O)[O-])c1`: the melting point was 142 to 143 °C.

`CC(C)(C)OC(=O)N1CCC(c2nc3cc(-c4ccc(C#N)c(F)c4)ccc3o2)CC1` showed a melting point of 138 to 142 °C.

With `C[C@H]1C[C@@](O)(c2ccc(S(=O)(=O)c3ccc4c(c3)CCC(=O)N4C)s2)CCO1`, the melting point was in the range of 80 to 82 °C. For `COc1ccc2c(c1)C(=O)c1c-2c(N2CCNCC2)nc2ccc(F)cc12`, the melting point lay in the range of 157 to 158 °C. On to `COC(=O)Nc1ccc(OCc2nc3ccc(OC)cc3s2)cc1C`, for which the melting point was in the range of 123 to 125 °C. The compound `COc1ccc([C@]2(C)CNC(=O)O2)cc1OCC(C)C` came in with a melting point of 93.7 °C. With `COc1ccc(-c2cc(OC)c(OC)cc2[N+](=O)[O-])cc1OC`, the melting point is 149 to 151 °C. In the case of `CCCCN(CC(=O)c1ccc(OCc2ccccc2)c2[nH]c(C(=O)OCCN3CCOCC3)cc12)Cc1ccccc1`, the melting point fell in the range of 149 to 150 °C. The result for `CS(=O)(=O)OC[C@@H]1CN(c2ccc(O)cc2)C(=O)O1` reads 282 to 284 °C; that for `O=C(c1ccccc1)c1ccc(Br)s1`, 41 to 43 °C; that for `O=C(Nc1ccccc1)O[C@@H]1CN=C(c2ccccc2F)O[C@H]1c1ccccc1` (racemic), 128 °C. The value for `CCOC1=C([N+](=O)[O-])CN(C(C)C)C1=O` was 47 °C; that for `CC(C)c1ccc(C(=O)CCc2ccccc2)c(C(C)C)c1OS(N)(=O)=O` was 121 to 124 °C. The compound `Cc1nc2c(OCc3ccccc3)cccn2c(=O)c1CCCl` registered a melting point of 141 °C. In turn, `CC[C@H]1C(=O)C[C@@H]2C[C@H]1OO[C@@]2(/C=C/C(=O)c1ccc(Cl)cc1)CC` came in with a melting point of 127 °C. With `c1ccc(-c2cnns2)cc1`, the melting point lay in the range of 46 to 48 °C.

`Cc1nc[nH]c1CSCCNC(=N)N[N+](=O)[O-]` came in with a melting point of 146 to 147 °C. With `Cc1sc(-c2ccc([N+](=O)[O-])cc2)nc1O`, the melting point was 244 to 248 °C. Consider `CC(C)(C)OCc1cc(C(C)(C)C)cc(COC(C)(C)C)c1SSc1c(COC(C)(C)C)cc(C(C)(C)C)cc1COC(C)(C)C`, for which the melting point was 120 to 121 °C. Consider `N#CC(C#N)(CC=C(Cl)Cl)Cc1ccc(Cl)cc1`, for which the melting point was 67.5 °C.

`CCCCCCCCCCCCCCOc1ccc(CN(C(C)=O)c2cccc(CBr)c2)cc1` had a melting point of 56 to 58 °C. `O=c1c2c(n(-c3cccc(Cl)c3)c3ncccc13)CCCC2` came in with a melting point of 195 to 198 °C. `NC(=O)C1CCc2ccc(C(=O)c3ccccc3)cc21` (stereo not given): the melting point is 195 to 197 °C. With `COc1ccc(C(=O)Nc2cccc3cnccc23)cc1OC`, the melting point lay in the range of 193 to 194 °C. For the compound `C=C1N(C)C(=O)OC12CCN(CCCN1c3ccccc3Sc3ccc(C(F)(F)F)cc31)CC2`, the melting point lay in the range of 116 to 118 °C. The result for `CCOC(=O)c1cc(OC(C)=O)c(OC(C)=O)c(OC(C)=O)c1` reads 76 to 78 °C; that for `N#CCSC(=S)SCc1ccc(Cl)cc1`, 41 to 43 °C. Consider `O=C(COc1ccc(Cl)cc1Cl)Nc1ccnn1-c1c(Cl)cc(C(F)(F)F)cc1Cl`, for which the melting point lay within 167 to 180 °C. The compound `CC(=O)c1ccc2ccccc2c1OC(F)F` gave a melting point of 80 to 81 °C. In the case of `Cc1c(O)ccc2c1OCC(c1ccc3c(c1)OCO3)C2` (stereo not given), the melting point fell in the range of 130 to 131 °C. The value for `COC(=O)c1cccnc1C(=O)c1ccc(F)cc1` was 95 to 96.5 °C; that for `CCCCCCCCCCCCCCCc1cc2cc(C(=O)O)ccc2[nH]1` was 108 to 110 °C.

Compound `Cc1cccc(NC(=O)NCC(=O)N(CC(=O)OC2(C)CCCCC2)c2ccccc2)c1` returned a melting point of 192 °C.

As to `O=C(O)CCCc1cccc(C(=O)c2ccc(Cl)cc2)c1`, the melting point was determined as 94 °C. In turn, `CC(C)(C(=O)C=Cc1ccc(Cl)cc1Cl)C1OCCO1` had a melting point of 92 to 93 °C. `O=CC(=C1NCCCS1)[N+](=O)[O-]`: the melting point was 171 to 172 °C. The value for `Cc1ccc(CC(N)=NO)cc1C` was 59 to 60 °C; that for `CCOC(=O)c1nn(CC)c2nccc(O)c12` was 85 to 87 °C; that for `Cn1ccc2c1CC(C(=O)OCc1ccccc1)C1C(=O)NC(=O)C21` (stereo not given) was 189 to 193 °C.

`CCNC(=O)c1ccc2c(c1)Nc1ccccc1S2` had a melting point of 150 to 151 °C. The result for `COc1cc(CNC(=S)NC(COC(=O)C(C)(C)C)Cc2ccc(C(C)(C)C)cc2)ccc1O` (stereo not given) reads 117 to 119 °C. Turning to `CCCCCCCNc1nc(C)c(O)c(=O)[nH]1`, the melting point was in the range of 233 to 235 °C. The result for `c1ccc2nc(-c3cc4nccnc4[nH]3)ccc2c1` reads 293 to 295 °C; that for `Brc1ccc(N=NSc2ccccc2)c2ccccc12`, 57 to 58 °C. The compound `CCCCCCCCc1ccc(-c2cnc(-c3ccc(O)cc3F)nc2)cc1` gave a melting point of 167 °C. In the case of `CCc1c(C(=O)C(N)=O)c2cc(OCCCC(=O)O)ccc2n1Cc1ccccc1`, the melting point fell in the range of 173 to 175 °C. `CCOC(=O)Nc1nc(C)c(-c2nc3ccccc3c(=O)n2-c2ccc(C(C)=O)cc2)s1` came in with a melting point greater than 275 °C. For `N#CC1C2OCC(O2)C(OCc2ccccc2)C1O` (stereo not given), the melting point was 152 to 156 °C. In the case of `O=C1c2nccnc2C(=O)N1c1ccc2ccc(O)nc2n1`, the melting point worked out at 373 °C. `COC(=O)c1cc(O)n(C(C)C)n1` showed a melting point of 162 to 163 °C.

`CCOC(=O)C(=CN(C)C)C(=O)c1ccc(Br)cc1Cl` yielded a melting point of 100 to 101 °C. The compound `C#CCC(CCc1ccccc1)(C(N)=S)c1cccnc1` (stereo not given) had a melting point of 73 to 74 °C.

Turning to `Cc1oc(C(N)=O)c(C)c1-c1nc2ccc(C(=O)c3ccccc3)cc2[nH]1`, the melting point lay in the range of 143 to 146 °C. In the case of `CCOC(=O)c1cn(C)c2nn(C)cc2c1=O`, the melting point lay within 235 to 240 °C. The value for `NC(=O)N(O)CC=Cc1ccc(-c2ccccc2)o1` was 157 to 158 °C. In turn, `O=c1c(-c2cccc(Cl)c2)c[nH]n1-c1cccc(C(F)(F)F)c1` registered a melting point of 190 to 192 °C.

With `Cc1ccc(-n2nc3c4cc(Br)ccc4[nH]c(=O)n3c2=O)cc1`, the melting point came out at 369 °C.

For `O=C(Nc1ccccc1)NC1C(=O)N(CC2C3CC4CC(C3)CC2C4)c2ccccc2N(c2ccccc2)C1=O` (stereo not given), the melting point was 192 to 193 °C. For `CCOP(=O)(OCC)c1cc2cc(N)c(Cl)cc2[nH]c1=O`, the melting point is 255 to 260 °C. The value for `O=C(OCC1CCN(CC2CSc3ccc(F)cc3C2)CC1)c1ccc(F)cc1` (stereo not given) was 113 to 114 °C; that for `COC(=O)c1ccccc1COc1ccc(CCCO)cc1` was 50.5 to 52 °C. `CC(O)c1ccc(F)c(-c2ccc3nc(-c4ccc(Cl)cc4)cn3c2)c1` (stereo not given): the melting point was in the range of 180 to 182 °C. The value for `CCCc1c(O)c(Br)cc(C(C)=O)c1O` was 67 °C; that for `Cc1cc(-n2ccnc2)c2cccc(OCc3c(Cl)ccc(S(=O)(=O)N4CCCC4C(=O)NCC4CCN(CC(=O)CC(=O)O)CC4)c3Cl)c2n1` (stereo not given) was 125 °C. With `CCCCCCCCCCCCc1cn(C(C(=O)Nc2c(OC)cc(OC)cc2OC)c2ccccc2)cn1` (stereo not given), the melting point fell in the range of 95 to 102 °C. Regarding `COc1ccc(C(Sc2cc(Oc3ccccc3)ccc2N)C(O)C(=O)O)cc1Cl` (stereo not given), the melting point lay in the range of 168 to 170 °C. Regarding `CN(Cc1ccccc1)S(=O)(=O)CC(N)=O`, the melting point is 124 to 127 °C. Compound `Nc1c(SC(F)(F)F)c(C=O)nn1-c1c(Cl)cc(CC(F)(F)F)cc1Cl` displayed a melting point of 140 to 143 °C.
